Experimental findings from PMC12239085, “Silver(I) Ions Bridging Oxadiazole-2-thione Derivatives with Mitochondriotropic Agents: A Promising Strategy for Potent Anticancer Chemotherapy” (Inorganic Chemistry, 2025) are described below.

Molecules are shown by their SMILES. “And” between values parts separate entries of the source, which are not always exact repeats. Equal entries are not always repeated.

This assay has as its system calf thymus (CT)-DNA. Briefly: CT-DNA binding, UV absorption spectroscopy. The conditions noted are these: for binding constant K b toward CT-DNA: UV absorbance at 300–310 nm, CT-DNA 10–100 μΜ; for percentage of hyperchromism: UV spectra of CT-DNA with gradual additions of complex. On the procedure:
In order to elucidate the mechanism of action of compounds 1–5 against MCF-7 cells, their interaction with CT-DNA was investigated using UV absorption and fluorescence spectroscopy. The UV absorption spectra of compounds 1–5 were recorded both in the presence and absence of CT-DNA (Figure S27). […] The calculated K b values for 1–5 are (10.5 ± 1.8) × 10^4 (1), (6.3 ± 0.6) × 10^4 (2), (11.3 ± 1.6) × 10^4 (3), (7.5 ± 1.0) × 10^4 (4) and (10.2 ± 1.1) × 10^4 (5) M^–1, respectively.
For the experiments of titration, UV spectra of CT-DNA in buffer solution in the absence and presence of 1–5 at r values of 0–0.13 (r = [complex]/[DNA], [DNA] = 10^–4 M) were recorded. ,− In order to determine the constant K b value, UV spectra of 1–5 in the absence and presence of CT-DNA at r values 1–0.1 ([complex] = 10 μM, [CT DNA] = 10–100 μM) were investigated.^24,26–30 The K b value is obtained from the ratio of the slope to the y-intercept in plots [DNA]/(εa–εf) versus [DNA] (e a = A obsd/[compound], e f = the extinction coefficient for the free compound). ,−

Turning to `c1ccc(-c2nnc([S][Ag]([PH](c3ccccc3)(c3ccccc3)c3ccccc3)([PH](c3ccccc3)(c3ccccc3)c3ccccc3)[PH](c3ccccc3)(c3ccccc3)c3ccccc3)o2)cc1` [compound 1], the “binding constant K b toward CT-DNA” value is reported as 10.5 ± 1.8 × 10^4 M^–1 and the percentage of hyperchromism is reported as 4.0%.
Taken in the same sequence, the figures for `Fc1ccccc1-c1nnc([S][Ag]([PH](c2ccccc2)(c2ccccc2)c2ccccc2)([PH](c2ccccc2)(c2ccccc2)c2ccccc2)[PH](c2ccccc2)(c2ccccc2)c2ccccc2)o1` [compound 2] were 6.3 ± 0.6 × 10^4 M^–1 and 7.6%.
With `Fc1ccc(-c2nnc([S][Ag]([PH](c3ccccc3)(c3ccccc3)c3ccccc3)([PH](c3ccccc3)(c3ccccc3)c3ccccc3)[PH](c3ccccc3)(c3ccccc3)c3ccccc3)o2)cc1` [compound 3], the “binding constant K b toward CT-DNA” value was 11.3 ± 1.6 × 10^4 M^–1 and 11.3 × 10^4 M^–1; the percentage of hyperchromism came to 28.0%.
On to `Clc1ccccc1-c1nnc([S][Ag]([PH](c2ccccc2)(c2ccccc2)c2ccccc2)([PH](c2ccccc2)(c2ccccc2)c2ccccc2)[PH](c2ccccc2)(c2ccccc2)c2ccccc2)o1` [compound 4], for which the “binding constant K b toward CT-DNA” value is 7.5 ± 1.0 × 10^4 M^–1 and the percentage of hyperchromism was found to be 8.5%.
For the compound `Clc1cccc(-c2nnc([S][Ag]([PH](c3ccccc3)(c3ccccc3)c3ccccc3)([PH](c3ccccc3)(c3ccccc3)c3ccccc3)[PH](c3ccccc3)(c3ccccc3)c3ccccc3)o2)c1` [compound 5], the “binding constant K b toward CT-DNA” value is 10.2 ± 1.1 × 10^4 M^–1 and 10.2 × 10^4 M^–1; the percentage of hyperchromism was 1.2%.
